We go through five compounds from US20220110985A1, “NUTRITIONAL COMPOSITION COMPRISING 2'FUCOSYLLACTOSE AND 3'GALACTOSYLLACTOSE” (N.V. Nutricia, priority 2019, published 2022).

Marks after values point to notes of the source that are not given here.

Assay [1] deals with Caco-2 cell monolayer. Put plainly: DON-induced impairment of Caco-2 cell monolayer integrity (TEER, lucifer yellow flux). It is filed as cell-based, human. The settings on record: for effect on DON-induced loss of epithelial barrier integrity (TEER, LY flux), in words: 24 h pretreatment (GLs 0.75 wt. %; 2′-FL 1 mg/ml), then DON 4.2 μM 24 h. The procedure: Beta1,3′-galactosyl-lactose (beta3′-GL), beta1,4′-galactosyllactose (beta4′-GL) and beta1,6′-galactosyl-lactose (beta6′-GL) were obtained from Carbosynth (Berkshire, UK). Alpha1,3′-galactosyl-lactose (alpha3′-GL) was obtained from Elicityl (Crolles, France). Purified deoxydivalenol (DON) (D0156; Sigma Aldrich, St Luis, Mo., USA) was dissolved in pure ethanol and stored at −20° C. Human epithelial colorectal adenocarcinoma (Caco-2) cells were obtained from American […] (Code HTB-37) (Manasse, Va., USA, passage 90-102).
Caco-2 cells were used according to established methods. In brief: cells were cultured in Dulbecco's modified Eagle medium (DMEM) and seeded at a density of 0.3×10^5 cells into 0.3 cm^2 high pore density (0.4 μm) inserts with a polyethylene terephthalate membrane (BD Biosciences, Franklin Lakes, N.J., USA) placed in a 24-well plate. The Caco-2 cells were maintained in a humidified atmosphere of 95 air and 5% CO2 at 37° C.
Caco-2 cell monolayers were thus grown in a transwell system, which is a model for intestinal barrier function. The monolayers were pretreated for 24 h with different GLs, including beta3′-GL, alpha3′-GL, beta4′-GL and beta6′-GL in a concentration of 0.75 wt. % of the GL, before being exposed to the fungal toxin deoxynivalenol (DON), which is a trigger and model compound to impair intestinal barrier. DON was diluted to a final concentration of 4.2 μM in complete cell medium and added to the apical side as well as to the basolateral side of the transwell inserts. […] Incubation with DON was 24 h.
Measurements of the transepithelial electrical resistance (TEER) and lucifer yellow (LY) permeability were conducted to investigate barrier integrity. For TEER measurements a Millicel-ERS voltohmmeter connected to a pair of chopsticks electrodes was used to measure the TEER values. Results are expressed as a percentage of the initial value. For paracellular tracer flux assay the membrane impermeable lucifer yellow (LY) (Sigma, St Luis, Mo., USA) was added in a concentration of 16 μg/ml to the apical compartment in the transwell plate for 4 h, and the paracellular flux was determined by measuring the fluorescence intensity in the basolateral compartment with a spectrophotofluorimeter (FLUOstar Optima, BMG Labtech, Offenburg, Germany) set at excitation and emission wavelengths of 410 and 520 nm, respectively. Release of interleukin-8 (IL-8 or CXCL8), which is a typical marker for inflammation, was quantified in the medium of the apical side and the basolateral side of the Caco-2 transwell inserts in response to the treatments. CXCL8 concentrations were measured by using the human IL-8 ELISA assay (BD Biosciences, Pharmingem, San Diego, Calif., USA) according to manufacturer's instructions. For more details on materials and methods see Akbari et al, 2016, Eur J Nutr. 56(5):1919-1930.

Assay [2] deals with human PBMC, unstimulated. Put plainly: Cytokine production of unstimulated PBMC (IL10, CCL20). The format is cell-based. The text has this: Isolation of PBMC from healthy donors: Human peripheral blood mononuclear cells (PBMC) from healthy donors were isolated from buffy coats (Sanquin, Amsterdam, the Netherlands). PBMC were obtained by centrifugation using Leucosep tubes (Greiner Bio-One). […] After lysis, the PBMC were resuspended in freezing medium (70% RPMI 1640 medium (Gibco, Thermo Fisher Technologies) supplemented with 10% heat-inactivated FCS and 100 U/ml penicillin-streptomycin, 20% heat-inactivated FCS and 10% DMSO (Sigma)) and cryopreserved. PBMC activation model: PBMC (0.2·10^6 cell/well) were cultured in 96-well flat bottom plates (Corning). For 24 hours the cells were pre-incubated with 2'-FL (Jennewein), 3'-GL (0-0.3% w/v; […] Sigma Aldrich) and combinations thereof. Subsequently, the cells were CD3/CD28-activated (Pelicluster CD3 and Pelicluster CD28, Sanquin) for an additional 24 hours. After incubation, IFNγ was measured by ELISA in the supernatants (see below). […] Roche) and/or 10% Triton (5 μl; negative control). […] Cytokine production of PBMC: PBMC were incubated with indicated reagents. After incubation, the supernatants were collected and IL2, IL6, IL10, IL13, IL21, TNFα, IFNγ, MIF, CCL1, CCL13, CCL17, CCL20, CCL22 and CXCL8-11 levels were measured by conducting a validated multiplex immunoassay based on Luminex technology (xMAP, Luminex Austin Tex. USA). Acquisition was conducted with the Biorad […] (Biorad laboratories, Hercules USA) in combination with xPONENT software version 4.2 (Luminex). Data was analyzed by 5-parametric curve fitting using Bio-Plex Manager software, version 6.1.1 (Biorad). After PBMC stimulation, cell culture supernatants were collected, after which cytokine responses were measured in order to test immune responsiveness of the cells. The levels of cytokines measured in stimulated conditions were corrected for the (low) levels of the cytokines measured in non-stimulated conditions. In addition, since each donor is reacting in its own efficiency onto the T cell stimulus, we calculated the individual index of cytokine response by dividing the intervention induced response by the basal stimulated response.

Assay [3] deals with human peripheral blood mononuclear cells (PBMCs). The assay can be described thus: PBMC cell activity (WST-1). The format is cell-based. To be noted: after 24 h; non-stimulated and CD3/CD28 stimulated conditions. On the procedure: Isolation of PBMC from healthy donors: Human peripheral blood mononuclear cells (PBMC) from healthy donors were isolated from buffy coats (Sanquin, Amsterdam, the Netherlands). PBMC were obtained by centrifugation using Leucosep tubes (Greiner Bio-One). PBMC were collected and washed in PBS (Gibco, Thermo Fisher Technologies)+2% heat-inactivated FCS (Invitrogen), followed by hypotonic lysis of erythrocytes with sterile lysis buffer (0.15 M NH4Cl, 0.01 M KHCO3 and 0.1 mM EDTA, pH of 7.4 at 4° C., all from Merck, Darmstadt, Germany). After lysis, the PBMC were resuspended in freezing medium (70% RPMI 1640 medium (Gibco, Thermo Fisher Technologies) supplemented with 10% heat-inactivated FCS and 100 U/ml penicillin-streptomycin, 20% heat-inactivated FCS and 10% DMSO (Sigma)) and cryopreserved.
PBMC activation model: PBMC (0.2·10^6 cell/well) were cultured in 96-well flat bottom plates (Corning). For 24 hours the cells were pre-incubated with 2′-FL (Jennewein), 3′-GL (0-0.3% w/v; Carbosynth) or sodium butyrate (0.2 mM; Sigma Aldrich) and combinations thereof. Subsequently, the cells were CD3/CD28-activated (Pelicluster CD3 and Pelicluster CD28, Sanquin) for an additional 24 hours. After incubation, IFNγ was measured by ELISA in the supernatants (see below). To determine cell activity after stimulation, PBMC were incubated with cell proliferation reagent WST-1 (10 μl; Roche) and/or 10% Triton (5 μl; negative control). After 3 hours, absorbance was measured at OD450 nm and OD650 nm and cell activity was calculated according to manufacturer's instructions.

For assay [4], the system named is T84 human intestinal epithelial cells. The assay can be described thus: T84 monolayer barrier integrity (TEER) with IL-4. It is filed as cell-based. The settings on record: butyric acid 4 mM, TEER increase relative to t=0. On the procedure:
T84 human intestinal epithelial cells are commonly used to study intestinal barrier integrity in vitro. T84 cells (ATCC, USA) were cultured on 12 mm transwell inserts (0.4 μm, Corning Costrar, USA) in DMEM-F12 glutamax with penicillin-streptomycin (100 IU/ml), supplemented with 5% FBS-Hl. T84 cells were used 14 days after reaching confluence. Monolayers of T84 cultured on transwell filters were pre-incubated for 48 h with or without butyrate. These samples were subsequently incubated for an additional 48 h in the presence of IL-4 (25 ng/ml). IL-4 was added to the basolateral compartment; medium and additives were changed every 24 h.
Epithelial barrier integrity was assessed by measuring transepithelial resistance (TEER; Ω×cm^2) with the epithelial volt-ohm meter (EVOM; World Precision Instruments, Germany).
Results are shown in Table 5 where relative TEER values are presented. The 48 h and 96 h column is the TEER increase relative to t=0 value. IL-4 treatment disrupted the intestinal barrier function; however in the presence of butyrate this disruption was ameliorated.

The mark [5] stands for this setting: Caco-2 monolayer, DON 4.2 μM, 2′-FL 1 mg/ml.

`OC[C@H]1O[C@H](O[C@H]2[C@@H](O)[C@@H](CO)O[C@@H](O[C@H]3[C@H](O)[C@@H](O)C(O)O[C@@H]3CO)[C@@H]2O)[C@H](O)[C@@H](O)[C@H]1O` (stereo partly drawn) [alpha3′-GL, Gal (alpha 1-3)-Gal (beta 1-4)-Glc]: in assay [1], the “effect on DON-induced loss of epithelial barrier integrity (TEER, LY flux), in words” value (“effect on DON-induced loss” below) was “did not prevent the DON-induced disrupted intestinal barrier”.

Consider `CCCC(=O)O` [butyrate, butyric acid], for which the “IL10 level as compared to blanc control, in words” value in assay [2] (0.2% 2′-FL, 0.2 mM butyrate) is “did not have an effect”. Moreover, in assay [2] (unstimulated PBMC), the “CCL20 level as compared to blanc control, in words” value is “did not have a statistically significant effect”. In assay [2] (unstimulated, 0.2% w/v 2′-FL, 0.2 mM butyrate, blanc = 1, observed), the “Relative IL10 level, mean (se)” value is given as 1.911 (0.203). In addition, the “Relative CCL 20 mean (s.e.)” value in assay [2] (unstimulated, 0.2% w/v 2′-FL, 0.1 w/v % 3′-GL, 0.2 mM butyrate, blanc = 1, observed) was 1.053 (0.127). In assay [3], the “Immune cell activity as measured by WST, in words” value was “did not influence immune cell metabolic activity”. In assay [4] (48 h pre-incubation), the “% TEER at 48 h” value is 79 (25) %. For the same compound, the “% TEER at 96 h (IL-4)” value in assay [4] (additional 48 h with IL-4 25 ng/ml) is reported as 26 (16) %.

Consider `OC[C@H]1O[C@@H](O[C@@H]2[C@H](O)[C@@H](O)[C@H](O[C@H]3[C@H](O)[C@@H](O)C(O)O[C@@H]3CO)O[C@@H]2CO)[C@H](O)[C@@H](O)[C@H]1O` (stereo partly drawn) [beta4′-GL, Gal (beta 1-4)-Gal (beta 1-4)-Glc], for which the “effect on DON-induced loss” value in assay [1] was “did not show a significant effect”.

For the compound `CC1=C[C@H]2O[C@@H]3[C@H](O)C[C@](C)([C@@]2(CO)[C@H](O)C1=O)[C@]31CO1` [DON, deoxynivalenol], in assay [1] (setting [5]), the Lucifer yellow flux is given as 530.8 (3.975)*** ng/ml (cm^2xh) and the “TEER (% of initial value) Mean (s.e.)” value was 34.33 (1.088)*** % of initial value.

For the compound `OC[C@H]1O[C@@H](OC[C@H]2O[C@@H](O[C@H]3[C@H](O)[C@@H](O)C(O)O[C@@H]3CO)[C@H](O)[C@@H](O)[C@H]2O)[C@H](O)[C@@H](O)[C@H]1O` (stereo partly drawn) [beta6′-GL, Gal (beta 1-6)-Gal (beta 1-4)-Glc], in assay [1], the “effect on DON-induced loss” value is reported as “did not show a significant effect”.
